Assay results published in PubChem BioAssay (NCI).
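Growth conditions: 96-well plates. Treatment: test compound, 48 hours, 5 concentrations. Analysis: linear interpolation between bracketing concentrations; unreached endpoints set to highest concentration. At the GI50, growth is halved. TGI denotes the concentration required for complete inhibition of growth.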

How the values were obtained:
Assay in all cases: NCI tumour cell line growth inhibition, 48 h
UACC-62 melanoma = tested on: UACC-62 melanoma
HL-60(TB) leukemia = tested on: HL-60(TB) leukemia
SF-295 CNS = tested on: SF-295 CNS
786-0 renal = tested on: 786-0 renal
SF-539 CNS = tested on: SF-539 CNS
RPMI-8226 leukemia = tested on: RPMI-8226 leukemia
OVCAR-5 ovarian = tested on: OVCAR-5 ovarian
SNB-19 CNS = tested on: SNB-19 CNS
MDA-MB-435 = tested on: MDA-MB-435
PC-3 prostate = tested on: PC-3 prostate

SMILES | TGI (UACC-62 melanoma) [µM] | TGI (HL-60(TB) leukemia) [µM] | TGI (SF-295 CNS) [µM] | TGI (786-0 renal) [µM] | TGI (SF-539 CNS) [µM] | TGI (RPMI-8226 leukemia) [µM] | TGI (OVCAR-5 ovarian) [µM] | TGI (SNB-19 CNS) [µM] | GI50 (UACC-62 melanoma) [µM] | GI50 (HL-60(TB) leukemia) [µM] | GI50 (SF-295 CNS) [µM] | GI50 (SNB-19 CNS) [µM] | GI50 (MDA-MB-435) [µM] | TGI (MDA-MB-435) [µM] | GI50 (786-0 renal) [µM] | GI50 (SF-539 CNS) [µM] | GI50 (OVCAR-5 ovarian) [µM] | GI50 (PC-3 prostate) [µM] | TGI (PC-3 prostate) [µM]
CCCCCCCCC1C(C)c2c([nH]c3ccccc23)C2C(=O)N(c3ccccc3)C(=O)C21 (configuration not stated) | 36.4 | 13.9 | 29.8 | 26.5 | 32.7 | 12.9 | 33.6 | – | – | – | – | – | – | – | – | – | – | – | –
CSC(=NC(=O)c1ccccc1)SCCSC(=NC(=O)c1ccccc1)SC | > 100 | > 100 | > 100 | > 100 | > 100 | > 100 | > 100 | > 100 | – | – | – | – | – | – | – | – | – | – | –
CC(=O)OC(C)(C)C[N+](=O)[O-] | – | > 100 | > 100 | > 100 | > 100 | > 100 | > 100 | > 100 | – | – | – | – | – | – | – | – | – | – | –
CC1(C)C=C(N2CCN(C3=CC(C)(C)NC(C)(C)C3)CC2)CC(C)(C)N1 | > 100 | > 100 | > 100 | > 100 | > 100 | > 100 | > 100 | > 100 | – | – | – | – | – | – | – | – | – | – | –
CC(/C=C1\CCC(CN(C)C)C1=O)c1cccc(Br)c1 (configuration not stated) | 32.4 | 10.8 | 42.3 | 12.3 | 33.3 | 6.08 | 43.8 | 61.2 | – | – | – | – | – | – | – | – | – | – | –
Cc1ccc(-c2nc3ccccc3c(=O)n2NC2OC(CO)C(O)C(O)C2O)cc1 (configuration not stated) | > 100 | > 100 | > 100 | > 100 | > 100 | > 100 | > 100 | > 100 | – | – | – | – | – | – | – | – | – | – | –
CC(=O)CCn1[nH]c(=O)c(Cl)c(Cl)c1=O | > 100 | > 100 | > 100 | > 100 | > 100 | > 100 | > 100 | 31.1 | – | – | – | – | – | – | – | – | – | – | –
O=C(CC1(O)C(=O)Nc2c(Cl)cc(Cl)cc21)c1ccc([N+](=O)[O-])cc1 (configuration not stated) | > 53.6 | > 52.5 | > 100 | > 100 | > 68.7 | > 82.1 | > 100 | > 100 | – | – | – | – | – | – | – | – | – | – | –
Cl.[O-]c1cccc2cccnc12.[O-]c1cccc2cccnc12.[O-]c1cccc2cccnc12.[O-]c1cccc2cccnc12.[Ti+4] | 14.6 | – | > 100 | 4.41 | 14.4 | 2.67 | 19.5 | > 100 | 1.84 | 0.226 | 3.09 | 70.8 | 11.6 | > 100 | 0.567 | 2.06 | 2.71 | – | –
C=C1CCCC2OC(OC)CCC12 (configuration not stated) | > 100 | > 100 | > 100 | > 100 | > 100 | > 100 | > 100 | > 100 | – | – | – | – | – | – | – | – | – | – | –
CCN(CC)CCNc1ccc(N=Nc2cnc3ccccc3c2)c2ccccc12 | 3.21 | 2.92 | 3.38 | 3.35 | 3.07 | – | 3.24 | 3.97 | 1.7 | 1.34 | 1.77 | 2.06 | – | – | 1.93 | 1.67 | 1.64 | 1.28 | 2.6
